# Source: PMC12797002, “Hydrophobic residues in the α‐synuclein NAC domain drive seed‐competent fibril formation and are targeted by peptide inhibitors” (The Febs Journal, 2025)
# Assays:
# [1] = test system: HEK293T αSyn (A53T) CFP/YFP biosensor cells; experiment: Cell seeding assay (CFP/YFP inclusions, FRET flow cytometry); assay type: cell-based; conditions: 1 μM total or insoluble fraction, TurboFect
# Description: HEK293T αSyn (A53T) CFP/YFP biosensor cells (HEK293T parental line, RRID:CVCL_0063) were kindly provided by Dr. Marc Diamond from the University of Texas Southwestern Medical Center (Dallas, TX, USA). The cells were not further authenticated but were routinely tested and confirmed to be mycoplasma‐free using PCR‐based assays. The cells were maintained in complete growth media consisting of 88% Dulbecco's modified Eagle's growth medium (Lonza, Walkersville, MD, USA, Cat. # 12‐604F), supplemented with 10% (v/v) fetal bovine serum (Thermo Fisher Scientific Inc., Cat. # A5256701), 10 mM HEPES (Serana Europe GmbH, Brandenburg, Germany; Cat # BSL‐001‐100ML), 1% (v/v) GlutaMAX™ Supplement (Thermo Fisher Scientific Inc., Cat. # 35050061), and 1% (v/v) Penicillin–Streptomycin Solution (Thermo Fisher Scientific Inc., Cat. # 15140130). Cells were maintained at 37 °C in a humidified incubator with 5% CO2/atmospheric air. […]
# Cells were imaged using a high‐content imaging system (Cell Voyager 7000S; Yokogawa, Tokyo, Japan) with a 20× objective. CFP/YFP inclusions of αSyn (A53T) were detected using a 488 nm laser line (Ex = 460–490 nm, Em = 500–550 nm), while Hoechst‐33 342‐stained nuclei were detected using the 405 nm laser line (Ex = 360–400 nm, Em = 410–480 nm). […]
# [2] = test system: recombinant αSyn; experiment: Effect of inhibitor peptides on αSyn aggregation (ThT, TEM, dot blot, Coomassie gel); assay type: biochemical, human
# Description: For monitoring the effect of inhibitor peptides on αSyn aggregation, recombinant αSyn was incubated with PD, PL, PB, or scrambled peptides at a 1 : 2 molar ratio (100–150 μM αSyn:200–300 μM inhibitor) in the presence of 50 μM ThT. The incubation was performed at 37 °C with constant agitation at 850 rpm in a Turbo Thermo Shaker (TMS‐200; Allsheng, Hangzhou, China). The formation of amyloid fibrils was monitored by measuring ThT fluorescence over 72 h, as described previously.
# To fractionate aggregated samples (recombinant αSyn or NAC peptides), 20% of the aggregation mixture was set aside as the ‘total fraction’. The remaining sample was centrifuged at room temperature at 65 000 g for 1 h. The supernatant was collected as the ‘soluble fraction’ and transferred to a fresh tube. The pellet was resuspended in 80 μL of 1× PBS (pH 7.2) and centrifuged at 65 000 g for 1 h. After removing the supernatant, the pellet was resuspended in 8 μL of 1× PBS (pH 7.2), yielding a 10× concentrated ‘insoluble fraction’.
# Samples were dropped on glow‐discharged carbon‐coated copper grids and negatively stained with 2% uranyl acetate. Electron microscopy was performed on a Tecnai G2 F20 microscope (FEI Technologies, Hillsboro, OR, USA) with an Eagle 4K CCD camera (FEI Technologies) or a CM100 TWIN Transmission Electron Microscope (Philips, Amsterdam, Netherlands) equipped with a side‐mounted Veleta Camera (Olympus, Tokyo, Japan) and processed in the iTEM software suite (Olympus). After bringing the images to 2048 × 2048 pixels, the pixel size at the specimen level was 1.14 nm. Approximately 20 micrographs of each specimen were recorded and evaluated.
# The samples were mixed with 2× Laemmli buffer [62.5 mM Tris/HCl (pH 6.8), 25% (w/v) glycerol, 2% SDS, and 0.01% Bromophenol Blue, supplemented with 5% (v/v) 2‐mercaptoethanol] and boiled at 95 °C for 5 min. The samples were then subjected to electrophoresis using Mini‐PROTEAN TGX 4–20% Precast gels (Bio‐Rad, Hercules, CA, USA, Cat. # 4561095) in Tris/glycine/SDS running buffer (Bio‐Rad). […]
# [3] = test system: αSyn; conditions: cited from earlier work
# Description: Building on our findings that the presence of residues 8–11 in NAC peptides, corresponding to αSyn 68–71, is necessary for efficient nucleation and aggregation, we investigated whether disrupting this hydrophobic region could inhibit full‐length αSyn aggregation. Truncating these residues abolished aggregation, and peptides containing them (e.g., NAC16, NAC11) aggregated rapidly (Fig. 1). To test whether targeting this site could suppress aggregation, we selected a previously validated inhibitor peptide based on the KISVRV sequence. This segment mimics the 70–75 region of αSyn, a hydrop ...
# [4] = Self-aggregation of inhibitor peptides alone (ThT, SEM); assay type: physicochemical; conditions: Fig. S8
# Description: NAC peptides stored at −80 °C were thawed on ice and centrifuged at 12 100 g for 45 s. A reaction mixture (40 μL) was prepared on ice containing 100 μM NAC peptide, either alone or in combination with inhibitor peptides at a 1 : 2 molar ratio, along with 15 μM ThT (Sigma‐Aldrich, Burlington, MA, USA; Cat. # T3516‐5G) in 1× PBS (pH 7.2). This mixture was then dispensed into a clear‐bottom, black 384‐well plate (Revvity, Waltham, MA, USA), and the plate was sealed with a TopSealA‐PLUS (Revvity) to prevent evaporation.
# The aggregation kinetics was monitored on an EnSpire Multimode Plate Reader (Revvity) at 37 °C with a constant agitation of 1000 rpm. To prevent condensation in the assay plate, the upper heater temperature in the plate reader was set to 2 °C higher than the lower heater temperature. ThT (Ex: 460–490 nm, Em: 500–550 nm) fluorescence readings were recorded every 5–10 min for 48–72 h. The aggregation lag time was determined by fitting a Boltzmann sigmoidal equation to the fluorescence data in OriginPro 2024 (OriginLab Corporation, Northampton, MA, USA).
# NAC peptides aggregated in the absence or presence of inhibitor peptides, as described in the section Aggregation Kinetics, were collected and pooled into Eppendorf tubes. Approximately 2 μL of each sample was drop‐cast onto a silicon wafer and air‐dried at room temperature. […]
substance,measurement,setting,value
KISVRVRRRRRR [PB],"reduction of seed competency of αSyn fibrils, ranking","[1]; 72 h, Fig. 5C,D",most effective
KISVRVRRRRRR [PD],CFP/YFP inclusions in cells transduced with αSyn fibrils formed with inhibitor,"[1]; αSyn : peptide 1 : 2 for 72 h, n = 3",reduced inclusions
same,inhibition of αSyn aggregation (ThT kinetics),"[2]; αSyn : peptide 1 : 2 molar ratio (100–150 μM : 200–300 μM), 50 μM ThT, 37 °C, 850 rpm, 72 h, n = 3",highly effective in inhibiting αSyn aggregation
KISVRV,effect on preformed αSyn oligomers,[3],dissolve preformed oligomers
same,effect on αSyn fibril formation,[3],inhibit αSyn fibril formation
VSRKIVRRRRR [PS],final ThT reading normalized to control (amyloid fibrils formed),"[2]; αSyn : peptide 1 : 2, end of aggregation assay, n = 3 (PS n = 2)",increase in αSyn aggregation
same,αSyn fibrils by TEM,[2]; αSyn aggregated with peptide at 1 : 2,fibril morphology was unaffected
same,self-aggregation (ThT kinetics of peptide alone),[4],no signs of self‐aggregation
